Measurements taken from US20030087761A1, “Synergistic active compound combinations for controlling harmful plants” (priority 2001, published 2003).

Tests used:
Assay type in all cases: in vivo
CHEAL = assay: Field trial in corn, pre-emergence method: herbicidal effect on CHEAL; details: evaluation 36 days after application
Description: (§1) The herbicidal efficacy of the active compounds or active compound mixtures was scored visually using the treated plots in comparison to untreated control plots. The damage and development of all above-ground parts of the plants were recorded. Scoring was carried out using a percentage scale (100% effect=all plants killed; 50% effect=50% of the plants and the green parts of the plants killed; 0% effect no noticeable effect=like control plot). The scores of in each case 4 plots were averaged.
(§2) Crop plants were grown outdoors on plots under natural outdoor conditions, and seeds or rhizome pieces of typical harmful plants were laid out or the natural weed growth was utilized. Treatment with the compositions according to the invention was carried out after the harmful plants had emerged and the crop plants were, generally, at the 2- to 4-leaf stage; in some cases (as stated), application of individual active compounds or active compound combinations was carried out pre-emergence (cf. Section 1) or post-emergence (cf. Section 2) or as a sequential treatment partly pre-emergence and/or post-emergence. After the application, for example 2, 4, 6 and 8 weeks after the application, the effect of the preparations was scored visually by comparison with untreated controls (cf. scoring in Section 1). In the field trial as well, the compositions according to the invention have synergistic herbicidal activity against a broad spectrum of economically important weed grasses and broad-leaved weeds. […] Moreover, the effects in essential phases of the scoring period were above the expected values according to Colby, also indicating synergism. In contrast, the crop plants were, as a consequence of the treatments with the herbicidal compositions, damaged only to a small degree, if at all.
(§3) The numbers in the columns of the table under the designations of the harmful plants and the crop plants relate to the herbicidal effects or damage to the plants in percent.

ECHCG = assay: Field trial in corn, pre-emergence method: herbicidal effect on ECHCG; details: evaluation 36 days after application
Description: as §1, §2, §3

Corn = assay: Field trial in corn, pre-emergence method: crop damage
Description: as §1, §2, §3

[1] = system: APESV = Apera spica-venti (common wind grass); assay: Field trial in winter wheat, post-emergence method: herbicidal effect on APESV; details: post-emergence at middle tillering stage, evaluation 21 days after application, dose 50 g ai/ha
Description: as §1
(§4) Crop plants were grown outdoors on plots under natural outdoor conditions, and seeds or rhizome pieces of typical harmful plants were laid out or the natural weed growth was utilized. Treatment with the compositions according to the invention was carried out after the harmful plants had emerged and the crop plants were, generally, at the 2- to 4-leaf stage; in some cases (as stated), application of individual active compounds or active compound combinations was carried out pre-emergence (cf. Section 1) or post-emergence (cf. Section 2) or as a sequential treatment partly pre-emergence and/or post-emergence. After the application, for example 2, 4, 6 and 8 weeks after the application, the effect of the preparations was scored visually by comparison with untreated controls (cf. scoring in Section 1). […]

Winter wheat = assay: Field trial in winter wheat, post-emergence method: crop damage; details: post-emergence at middle tillering stage, evaluation 21 days after application, dose 50 g ai/ha
Description: as §1, §4

[2] = field trial, pre-emergence, evaluation 36 days after application, dose 75 g ai/ha

Compound: CC(F)c1nc(N)nc(C(C)c2ccc(F)c(F)c2)n1 (stereo not shown) [(A11), 2-amino-4-(1-fluoroethyl)-6-[1-(3,4-difluorophenyl)ethyl]-1,3,5-triazine]
- CHEAL [effect in %] (CHEAL; dose 75 g ai/ha): 0%
- ECHCG [effect in %] (ECHCG; dose 75 g ai/ha): 0%
- Corn [damage in %] (Corn; [2]): 0%

Compound: CCC(F)c1nc(N)nc(C(C)c2ccc(F)c(C)c2)n1 (stereo not shown) [(A20), 2-amino-4-(1-fluoropropyl)-6-[1-(3-methyl-4-fluorophenyl)ethyl]-1,3,5-triazine]
- CHEAL [effect in %] (CHEAL; dose 75 g ai/ha): 20%
- ECHCG [effect in %] (ECHCG; dose 75 g ai/ha): 0%
- Corn [damage in %] (Corn; [2]): 0%

Compound: CCC(F)c1nc(N)nc(C(C)c2ccc(F)c(Cl)c2)n1 (stereo not shown) [(A50), 2-amino-4-(1-fluoropropyl)-6-[1-(3-chloro-4-fluorophenyl)ethyl]-1,3,5-triazine]
- APESV [effect in %] [1]: 0%
- Winter wheat [damage in %] (Winter wheat): 0%

Compound: CCC(F)c1nc(N)nc(C(C)c2cc(F)cc(F)c2)n1 (stereo not shown) [(A60), 2-amino-4-(1-fluoropropyl)-6-[1-(3,5-difluorophenyl)ethyl]-1,3,5-triazine]
- APESV [effect in %] [1]: 0%
- Winter wheat [damage in %] (Winter wheat): 0%

Compound: CS(=O)(=O)c1cc(C(F)(F)F)ccc1C(=O)c1cnoc1C1CC1 [(B3.4.4), isoxaflutole, reference compound]
- CHEAL [effect in %] (CHEAL; dose 50 g ai/ha): 25%
- ECHCG [effect in %] (ECHCG; dose 50 g ai/ha): 86%
- Corn [damage in %] (Corn; corn, in vivo, 36 days): 0%
